From ChEMBL document CHEMBL1126028, “Antiandrogenic steroidal sulfonyl heterocycles. Utility of electrostatic complementarity in defining bioisosteric sulfonyl heterocycles” (J Med Chem, 1992)

What was measured:
[1] = molecular target: T1, Androgen receptor (Rattus norvegicus) (UniProt P15207); assay: […] relative binding affinity (1h/18h) as ratio of binding affinities for R1881 and compound against rat ventral prostate androgen receptor using [3H]- R1881 as radioligand; <0.01/<0.01
T1 sequence (whole entry): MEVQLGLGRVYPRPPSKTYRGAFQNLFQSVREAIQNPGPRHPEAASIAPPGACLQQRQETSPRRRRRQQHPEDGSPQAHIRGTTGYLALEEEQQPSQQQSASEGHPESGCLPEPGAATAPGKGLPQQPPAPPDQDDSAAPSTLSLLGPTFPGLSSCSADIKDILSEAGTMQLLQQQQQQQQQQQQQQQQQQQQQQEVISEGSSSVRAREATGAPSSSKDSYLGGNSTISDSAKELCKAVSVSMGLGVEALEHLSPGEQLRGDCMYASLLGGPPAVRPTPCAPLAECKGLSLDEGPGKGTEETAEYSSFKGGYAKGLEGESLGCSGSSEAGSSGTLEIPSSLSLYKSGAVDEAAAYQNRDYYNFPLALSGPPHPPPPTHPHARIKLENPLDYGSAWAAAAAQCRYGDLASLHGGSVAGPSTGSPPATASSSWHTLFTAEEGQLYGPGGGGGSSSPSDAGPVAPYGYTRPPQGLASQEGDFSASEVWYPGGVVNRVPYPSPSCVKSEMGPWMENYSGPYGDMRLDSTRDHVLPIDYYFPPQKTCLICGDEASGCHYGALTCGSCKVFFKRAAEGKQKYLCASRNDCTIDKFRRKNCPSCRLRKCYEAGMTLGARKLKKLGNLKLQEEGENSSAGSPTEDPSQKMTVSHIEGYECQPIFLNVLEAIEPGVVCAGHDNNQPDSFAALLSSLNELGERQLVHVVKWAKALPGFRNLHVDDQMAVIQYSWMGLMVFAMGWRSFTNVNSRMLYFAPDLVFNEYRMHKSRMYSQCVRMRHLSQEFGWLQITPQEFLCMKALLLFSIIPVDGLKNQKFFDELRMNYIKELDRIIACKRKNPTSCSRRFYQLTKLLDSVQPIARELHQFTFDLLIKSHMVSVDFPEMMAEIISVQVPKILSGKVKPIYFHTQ

Androgen receptor [2] = molecular target: T2, Androgen receptor (Rattus norvegicus, UniProt P15207)
T2 sequence (P15207 whole entry): T1 sequence (whole entry)
Description: In vivo binding affinity for rat ventral prostate androgen receptor by displacement of [3H]R-1881

[3] = molecular target: T1, Androgen receptor (Rattus norvegicus); assay: […] relative binding affinity (1h/18h) as ratio of binding affinities for R1881 and compound against rat ventral prostate androgen receptor using [3H]- R1881 as radioligand; 1.2/0.05
[4] = molecular target: T1, Androgen receptor (Rattus norvegicus); assay: […] relative binding affinity (1h/18h) as ratio of binding affinities for R1881 and compound against rat ventral prostate androgen receptor using [3H]- R1881 as radioligand; <.01/<.01
[5] = molecular target: T1, Androgen receptor (Rattus norvegicus); assay: […] relative binding affinity (1h/18h) as ratio of binding affinities for R1881 and compound against rat ventral prostate androgen receptor using [3H]- R1881 as radioligand; 0.26/0.04
Androgen receptor [6] = molecular target: T2, Androgen receptor; assay: […] binding affinity for rat ventral prostate androgen receptor by displacement of [3H]R-1881; set-up: species or system Prostate gland

C#C[C@]1(O)CCC2C3CC[C@H]4Cc5cc(S(C)(=O)=O)oc5C[C@]4(C)C3CC[C@@]21C (some centres undefined)
relative binding affinity (RBA) [1]: < 0.01
Ki (Androgen receptor [2]): > 29000 nM

C#C[C@]1(O)CCC2C3CC[C@H]4Cc5oc(S(C)(=O)=O)cc5C[C@]4(C)C3CC[C@@]21C (some centres undefined)
Ki (Androgen receptor [2]): 520 nM

C#C[C@]1(O)CCC2C3CC[C@H]4Cc5oc(S(C)(=O)=O)nc5C[C@]4(C)C3CC[C@@]21C (some centres undefined)
relative binding affinity (RBA) [3]: 1.2

C#C[C@]1(O)CCC2C3CC[C@H]4Cc5sc(S(C)(=O)=O)cc5C[C@]4(C)C3CC[C@@]21C (some centres undefined)
relative binding affinity (RBA) [4]: < 0.01
Ki (Androgen receptor [2]): > 29000 nM

C#C[C@]1(O)CCC2C3CC[C@H]4Cc5nc(S(C)(=O)=O)ncc5C[C@]4(C)C3CC[C@@]21C (some centres undefined)
relative binding affinity (RBA) [5]: 0.26
Ki (Androgen receptor [6]): 3000 nM

C#C[C@]1(O)CCC2C3CC[C@H]4Cc5nc(S(C)(=O)=O)sc5C[C@]4(C)C3CC[C@@]21C (some centres undefined)
Ki (Androgen receptor [2]): 860 nM
